These results are taken from patent publication US20120214748A1, “NOVEL PEPTIDES, PROCESS FOR PREPARATION THEREOF, AND USE THEREOF” (priority 2009, published 2012).

SMILES strings stand for the structures. Bridge positions count the residues as written; N and C are the ends. Peptide text beside a SMILES is read from it.

As a reminder, the Ki is a dissociation constant, usually derived from enzyme kinetics or from competition with a known ligand.

The target in one test is Thrombin (Homo sapiens, UniProt P00734). The test can be described thus: Thrombin inhibition with Z-Gly-Pro-Arg-pNa substrate. It is filed as biochemical.
For the next test, the target named is T1, MASP-1 CCP1-CCP2-SP (Homo sapiens, UniProt P48740).
T1 construct: Human MASP-targets consist of a serine-protease (SP) domain and two complement control protein domains (CCP-1,-2); made in house
T1 sequence (P48740 449-699 limits assumed): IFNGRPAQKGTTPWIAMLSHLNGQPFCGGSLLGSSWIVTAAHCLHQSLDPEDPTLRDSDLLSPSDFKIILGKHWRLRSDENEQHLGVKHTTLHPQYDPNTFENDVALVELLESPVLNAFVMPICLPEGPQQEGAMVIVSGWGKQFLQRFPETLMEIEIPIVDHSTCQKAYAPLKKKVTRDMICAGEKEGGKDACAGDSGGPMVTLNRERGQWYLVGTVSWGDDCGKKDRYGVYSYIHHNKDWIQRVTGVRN
T1 sequence (P48740 298-448 partner limits assumed): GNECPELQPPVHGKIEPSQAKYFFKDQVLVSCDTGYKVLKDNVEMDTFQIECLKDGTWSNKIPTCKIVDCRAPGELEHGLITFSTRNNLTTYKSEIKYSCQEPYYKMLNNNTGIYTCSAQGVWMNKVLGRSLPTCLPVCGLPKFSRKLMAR
The test can be described thus: Ki determination with synthetic substrate Z-L-Lys-SBzl on MASP-1. Type of test: biochemical.

Test [1] relates to blood coagulation (thrombin operation). The test can be described thus: Thrombin time (TT) in blood plasma. The note with it: peptide 200 μM, FIG. 6.a. How it is done:
(§1) We performed blood coagulation measurements using blood plasma taken from healthy individuals. From the blood obtained through venipuncture and treated with sodium citrate (3.8% wt/vol) the plasma was isolated by centrifugation (2000 g, 15 minutes, Jouan CR412 centrifuge).
(§2) Prothrombin time (PT) testing the extrinsic pathway of blood coagulation was measured on Sysmex® CA-500 (Sysmex, Japan) automatic system using Innovin® Reagent (Dale Behring, Marburg, Germany). Activated partial thromboplastin time (APTT) testing the intrinsic pathway of blood coagulation and thrombin time (TT) directly testing thrombin operation was measured on a Coag-A-Mate® MAX (BioMerieux, France) analyser using TriniClot™ reagent (Trinity Biotech, Wichlow, Ireland) and Reanal™ reagent (Reanal Finechemical, Hungary).
(§3) To examine the effects of peptides on blood coagulation we measured dose dependency, the results are shown on the graphs in FIG. 6. […] On the ordinates time is determined in seconds, while on the abscissas the logarithm of the inhibitor concentration is shown in μM.
(§4) FIG. 6.a illustrates an experiment for measuring thrombin time, in the course of which plasma coagulation (fibrin formation) is initiated by adding thrombin to the plasma. […] The members of this protease cascade are inhibited with peptide used in increasing concentrations (abscissa), and the time needed for coagulation is measured (ordinate).

In test [2] the test system is intrinsic pathway of blood coagulation. The experiment in a line: Activated partial thromboplastin time (APTT) in blood plasma. The note with it: peptide 200 μM, FIG. 6.c. How it is done: as §1, §2, §3, §4
Test [3] has as its system classical pathway of the complement system. The experiment in a line: WIELISA complement assay, classical pathway. Type of test: biochemical. Conditions: serum, FIG. 7. How it is done:
(§5) For measuring we used the so-called WIELISA kit (Euro-Diagnostica AB, COMPL300) developed for the selective measuring of the complement pathways, on the basis of the instructions for use attached to the kit. […] At the same time, the product detected during measuring is not a pathway-selective component, but the last element of the joint section of the activation pathways, the C5-9 complex.
(§6) The serum was diluted according to the prescriptions with the buffer belonging to the given complement pathway, it was incubated for 20 minutes at room temperature, the dilution sequence prepared from peptides was added to it, it was incubated for 20 minutes at room temperature, then it was pipetted into the appropriate wells of a special ELISA plate. In the following, washing, incubation and antibody addition was performed according to the instructions for use. It was incubated for 20 minutes with the substrate, and then the data was read at 450 nm in a spectrophotometer. A parallel belonged to each measuring point, 100% activity was represented by the serum without an inhibitor. The measurements were performed at the same time and on the same plate, from one single melted serum sample.

Test [4] has as its system alternative pathway of the complement system. The test can be described thus: WIELISA complement assay, alternative pathway. It is filed as biochemical. The note with it: serum, FIG. 7. As to the method:
as §5, §6

A further test addresses T2, MASP-2 CCP1-CCP2-SP (Homo sapiens, UniProt O00187).
T2 construct: Human MASP-targets consist of a serine-protease (SP) domain and two complement control protein domains (CCP-1,-2); made in house
The test can be described thus: Ki determination with synthetic substrate Z-L-Lys-SBzl on MASP-2. Conditions: NG = inhibition could not be measured even at the highest inhibitor concentration used. It is filed as biochemical.

Test [5] concerns extrinsic pathway of blood coagulation. The experiment in a line: Prothrombin time (PT) in blood plasma. The note with it: peptide 200 μM, FIG. 6.b. How it is done:
as §1, §2, §3, §4

Another test concerns the target T3, Trypsin (Bos taurus, UniProt P00760).
T3 sequence (P00760 24-246): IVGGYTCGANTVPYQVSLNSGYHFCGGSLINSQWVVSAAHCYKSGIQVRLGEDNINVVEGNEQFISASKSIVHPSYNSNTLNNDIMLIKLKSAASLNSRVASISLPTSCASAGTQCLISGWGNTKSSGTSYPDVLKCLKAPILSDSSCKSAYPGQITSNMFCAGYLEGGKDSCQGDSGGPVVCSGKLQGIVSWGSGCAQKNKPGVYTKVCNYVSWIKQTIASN
The experiment in a line: Trypsin inhibition on Z-L-Lys-SBzl substrate.

Test [6] has as its system lectin pathway of the complement system. The test can be described thus: WIELISA complement assay, lectin pathway. Type of test: biochemical. Conditions: serum, FIG. 7. As to the method: as §5, §6

T2 sequence (O00187 445-686 limits assumed): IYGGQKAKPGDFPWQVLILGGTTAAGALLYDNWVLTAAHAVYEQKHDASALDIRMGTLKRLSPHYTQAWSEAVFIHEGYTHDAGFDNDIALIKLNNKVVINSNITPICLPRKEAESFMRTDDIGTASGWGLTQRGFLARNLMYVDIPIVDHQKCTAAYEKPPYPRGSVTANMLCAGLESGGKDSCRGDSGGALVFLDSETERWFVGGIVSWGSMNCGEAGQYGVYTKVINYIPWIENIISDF
T2 sequence (O00187 287-444 partner limits assumed): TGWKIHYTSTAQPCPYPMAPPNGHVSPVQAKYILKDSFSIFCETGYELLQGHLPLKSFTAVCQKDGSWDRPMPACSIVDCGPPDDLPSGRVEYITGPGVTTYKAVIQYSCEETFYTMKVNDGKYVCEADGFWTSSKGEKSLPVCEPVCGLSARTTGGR

Regarding `CC[C@H](C)[C@H](NC(=O)[C@@H]1CSSC[C@H](NC(=O)[C@H](Cc2ccc(O)cc2)NC(=O)CN)C(=O)N[C@@H](CO)C(=O)N[C@@H](CCCNC(=N)N)C(=O)N[C@@H](CO)C(=O)N[C@@H](Cc2ccc(O)cc2)C(=O)N2CCC[C@H]2C(=O)N2CCC[C@H]2C(=O)N[C@@H](C(C)C)C(=O)N1)C(=O)N1CCC[C@H]1C(=O)N[C@@H](CC(=O)O)C(=O)O` [M2-6E] (H-GYCSRSYPPVCIPD-OH; disulfide 3-11; N-terminus and C-terminus assumed), on Thrombin, the “thrombin inhibition” value is listed as “very poor thrombin inhibitor”. Moreover, the results for the inhibition constant (Ki) at Thrombin (read-out: KI Thrombin), at MASP-2 CCP1-CCP2-SP and on Trypsin were 550000 nM, 180 nM and 1000 nM, respectively. Further, the “activity on MASP-1” value at MASP-1 CCP1-CCP2-SP is given as “not active on MASP-1”. The “thrombin time, effect on coagulation” value in [1] is on record as “remained near the normal range”. In addition, in test [2], the “activated thromboplastin time, effect on coagulation” value was “remained near the normal range”. Further, the “inhibition of the classical pathway (C5-9 complex)” value in [3] is “neither “S” peptide nor the “NS” peptide inhibited”. The “inhibition of the alternative pathway (C5-9 complex)” value in test [4] is recorded as “neither “S” peptide nor the “NS” peptide inhibited”. In test [5], the “prothrombin time, effect on coagulation” value is “remained near the normal range”. On Trypsin (compared with wild-type SFTI), the “activity on trypsin, lower by” value is recorded as 4 orders of magnitude. Moreover, the “inhibition of the lectin pathway (C5-9 complex)” value in test [6] is “efficient and specific inhibitors of the lectin pathway”.
